Measurements from PubChem BioAssay AID2060487 (Molecular Pharmacology Branch, DTP, NCI, 2025).

System: 997537-175-T-J1-PDC complex spheroid viability
Assay: Anticancer human tumor 997537-175-T-J1-PDC patient-derived colon adenocarcinoma cell line growth inhibition [GQUAD]
Conditions: for IC50: curve of first compound; for viability, T/C: stronger effect = lower value
Outline: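 Tumor cells were grown as complex spheroids with HUVEC endothelial cells and mesenchymal stem cells as stroma. G-quadruplex stabilizers were combined with targeted agents over half-log dilutions from near the clinical Cmax, or from 10 microM.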
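Also: spheroids exposed to the agents for 7 days.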
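For viability, T/C in this document: 100% = DMSO vehicle control viability.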

Work on `Cc1[nH]c2ccccc2c1CCNCc1ccc(/C=C/C(=O)NO)cc1` + CN(C)c1ccc(Nc2c3ccc(NC(=O)CCN4CCCC4)cc3nc3cc(NC(=O)CCN4CCCC4)ccc23)cc1 yielded an IC50 (second compound 0.0316 µM) of 301 nM, an IC50 (second compound 0.1 µM) of 253 nM and an IC50 (second compound 0.316 µM) of 252 nM. It also gave an IC50 (second compound 1 µM) of 199 nM, an IC50 (second compound 3.16 µM) of over 316 nM and an IC50 (second compound 10 µM) of 237 nM. For the same compound, the viability, T/C (second compound 0.0316 µM, first compound 0.000999 µM) was 103%, the viability, T/C (second compound 0.0316 µM, first compound 0.00316 µM) was 74.8% and the viability, T/C (second compound 0.0316 µM, first compound 0.00999 µM) was 85%. For the same compound, the viability, T/C (second compound 0.0316 µM, first compound 0.0316 µM) was 102%, the viability, T/C (second compound 0.0316 µM, first compound 0.0999 µM) was 77.2% and the viability, T/C (second compound 0.0316 µM, first compound 0.316 µM) was 48.8%. The viability, T/C (second compound 0.1 µM, first compound 0.000999 µM) was 97.8%, the viability, T/C (second compound 0.1 µM, first compound 0.00316 µM) was 86% and the viability, T/C (second compound 0.1 µM, first compound 0.00999 µM) was 79.2%. It also gave a viability, T/C (second compound 0.1 µM, first compound 0.0316 µM) of 94%, a viability, T/C (second compound 0.1 µM, first compound 0.0999 µM) of 78.8% and a viability, T/C (second compound 0.1 µM, first compound 0.316 µM) of 42.4%. The viability, T/C (second compound 0.316 µM, first compound 0.000999 µM) was 91.5%, the viability, T/C (second compound 0.316 µM, first compound 0.00316 µM) was 81.8% and the viability, T/C (second compound 0.316 µM, first compound 0.00999 µM) was 88%. For the same compound, the viability, T/C (second compound 0.316 µM, first compound 0.0316 µM) was 80.9%, the viability, T/C (second compound 0.316 µM, first compound 0.0999 µM) was 93.3% and the viability, T/C (second compound 0.316 µM, first compound 0.316 µM) was 41%. The viability, T/C (second compound 1 µM, first compound 0.000999 µM) was 88.5%, the viability, T/C (second compound 1 µM, first compound 0.00316 µM) was 77.1% and the viability, T/C (second compound 1 µM, first compound 0.00999 µM) was 87.5%. The viability, T/C (second compound 1 µM, first compound 0.0316 µM) was 80.8%, the viability, T/C (second compound 1 µM, first compound 0.0999 µM) was 96.1% and the viability, T/C (second compound 1 µM, first compound 0.316 µM) was 26%. It also gave a viability, T/C (second compound 3.16 µM, first compound 0.000999 µM) of 89.5%, a viability, T/C (second compound 3.16 µM, first compound 0.00316 µM) of 74.9% and a viability, T/C (second compound 3.16 µM, first compound 0.00999 µM) of 87.6%. It also gave a viability, T/C (second compound 3.16 µM, first compound 0.0316 µM) of 68%, a viability, T/C (second compound 3.16 µM, first compound 0.0999 µM) of 91.6% and a viability, T/C (second compound 3.16 µM, first compound 0.316 µM) of 55%. The viability, T/C (second compound 10 µM, first compound 0.000999 µM) was 82.3%, the viability, T/C (second compound 10 µM, first compound 0.00316 µM) was 56.7% and the viability, T/C (second compound 10 µM, first compound 0.00999 µM) was 96.1%. It also gave a viability, T/C (second compound 10 µM, first compound 0.0316 µM) of 81.1%, a viability, T/C (second compound 10 µM, first compound 0.0999 µM) of 98.8% and a viability, T/C (second compound 10 µM, first compound 0.316 µM) of 39%.
